Measured values reported in PubChem BioAssay (NCI).
Where “and” joins values, the source holds several entries; their conditions need not be identical. Equal entries are not always repeated.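 Briefly, cells in 96-well plates were exposed to five compound concentrations for 48 h, and endpoints were estimated by linear interpolation. GI50 marks 50% less growth. TGI marks complete inhibition of growth.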

Tests used:
Experiment in all cases: growth of human tumour cells (NCI), 48 h
KM12 colon = tested on: KM12 colon
CCRF-CEM leukemia = tested on: CCRF-CEM leukemia
CAKI-1 renal = tested on: CAKI-1 renal
COLO 205 colon = tested on: COLO 205 colon
A498 renal = tested on: A498 renal
HCT-15 colon = tested on: HCT-15 colon
ACHN renal = tested on: ACHN renal
MCF7 breast = tested on: MCF7 breast
MALME-3M melanoma = tested on: MALME-3M melanoma
UACC-257 melanoma = tested on: UACC-257 melanoma

Row | SMILES | TGI (KM12 colon) | TGI (CCRF-CEM leukemia) | TGI (CAKI-1 renal) | TGI (COLO 205 colon) | TGI (A498 renal) | TGI (HCT-15 colon) | TGI (ACHN renal) | TGI (MCF7 breast) | TGI (MALME-3M melanoma) | TGI (UACC-257 melanoma) | GI50 (KM12 colon) | GI50 (CCRF-CEM leukemia) | GI50 (CAKI-1 renal) | GI50 (COLO 205 colon) | GI50 (HCT-15 colon) | GI50 (MCF7 breast) | GI50 (MALME-3M melanoma) | GI50 (UACC-257 melanoma)
1 | CCCCC(C#N)(OP1(=O)OC(c2ccccc2)C(C)N1C)c1ccccc1 (stereo unspecified) | 37.2 µM | 40.3 µM | 42.5 µM | 35.4 µM | 33.6 µM | 54.8 µM | 37.5 µM | 39 µM | 30.6 µM | 33.7 µM | – | – | – | – | – | – | – | –
2 | COC(=O)NCCc1[nH]nc2c1C(=O)C=C(N1CCOCC1)C2=O | > 100 µM | > 100 µM | > 100 µM | > 100 µM | > 100 µM | > 100 µM | > 100 µM | > 100 µM | > 100 µM | > 100 µM | – | – | – | – | – | – | – | –
3 | O=C1CCC2(CC1CC(Sc1ccccc1)Sc1ccccc1)OCCO2 (stereo unspecified) | > 100 µM | > 100 µM | > 100 µM | 66.1 µM | > 100 µM | > 100 µM | > 100 µM | > 100 µM | 84.7 µM | > 100 µM | – | – | – | – | – | – | – | –
4 | CC(=O)OC(/C=C/c1ccccc1)P1(=O)N(CC(C)(C)C)[C@@H]2CCCC[C@H]2N1CC(C)(C)C (stereo partly specified) | 26.1 µM and 21.4 µM | 47.8 µM and 34.1 µM | 31.3 µM and 23.6 µM | 13.2 µM and 10.8 µM | 21.8 µM | 20.9 µM and 17.6 µM | 21.6 µM and 20.3 µM | 16 µM and 17.5 µM | 26.8 µM and 26.4 µM | 13.2 µM and 11.6 µM | – | – | – | – | – | – | – | –
5 | COc1ccc2c(CCN)c(C(=O)O)[nH]c2c1 | > 100 µM | > 100 µM | > 100 µM | > 100 µM | > 100 µM | > 100 µM | > 100 µM | > 100 µM | > 100 µM | > 100 µM | – | – | – | – | – | – | – | –
6 | COC(=O)[C@]1(c2cc3ccccc3n2S(=O)(=O)c2ccccc2)CC2CN(C(C)=O)C1CC2=O (stereo partly specified) | 8.22 µM | – | 7.79 µM | 7.29 µM | 21.4 µM | 9.06 µM | 3.97 µM | 3.37 µM | 6.69 µM | 7.8 µM | – | – | – | – | – | – | – | –
7 | COc1ccc2nc3ccc(OC)cc3c(SCCO)c2c1 | > 63.8 µM | > 31.1 µM | > 100 µM | > 64.3 µM | > 100 µM | > 100 µM | > 100 µM | > 62.3 µM | > 96.2 µM | > 100 µM | – | – | – | – | – | – | – | –
8 | O=S(=O)(CCBr)CCBr | 30 µM | > 30.2 µM | 16.4 µM | 12.7 µM | 14.8 µM | 7.88 µM | – | 18.3 µM | 9.2 µM | 13.5 µM | – | – | – | – | – | – | – | –
9 | CC(=O)N=C1N(/C=C2\C(=O)Oc3ccccc3C2=O)C(=O)/C(=C/c2ccc(OC(C)=O)cc2)N1C | > 100 µM | > 100 µM | > 100 µM | > 100 µM | > 100 µM | > 100 µM | > 100 µM | > 100 µM | > 100 µM | > 100 µM | – | – | – | – | – | – | – | –
10 | COC(=O)C1Cc2c(OC)ccc(OC)c2CC(C(=O)OC)C1=O (stereo unspecified) | > 100 µM | > 100 µM | > 100 µM | > 100 µM | > 100 µM | > 100 µM | > 100 µM | > 100 µM | > 100 µM | > 100 µM | – | – | – | – | – | – | – | –
11 | O=C1CC2(c3ccccc3)ON=C(c3ccccc3)N2c2ccccc2N1 (stereo unspecified) | > 100 µM | > 100 µM | – | > 100 µM | > 100 µM | > 100 µM | > 100 µM | > 100 µM | > 100 µM | > 100 µM | – | – | – | – | – | – | – | –
12 | [N-]=[N+]=C1N=CN=C1c1ncn[nH]1 | > 100 µM | 27.6 µM | 37.5 µM | > 100 µM | > 100 µM | > 100 µM | > 100 µM | > 100 µM | > 100 µM | > 100 µM | – | – | – | – | – | – | – | –
13 | CCOC(=O)C1=CNC(C(=O)OCC)C1c1cccn1-c1ccc(Cl)cc1[N+](=O)[O-] (stereo unspecified) | 47.5 µM | 66.1 µM | 58.6 µM | > 100 µM | > 100 µM | 46.6 µM | > 100 µM | 60.6 µM | – | 70 µM | – | – | – | – | – | – | – | –
14 | CN(C)CCNC(=O)c1cccc2c(NCCN(C)C)c3ccccc3nc12 | 11.8 µM | > 100 µM | 12.7 µM | 7.23 µM | 4.74 µM | 24.7 µM | 9.59 µM | 12.8 µM | 15.4 µM | 17.3 µM | – | – | – | – | – | – | – | –
15 | CCCCCCCCOC1C(O)C(O)C(O)C(O)C12CO2 (stereo unspecified) | > 100 µM | > 100 µM | > 100 µM | > 100 µM | > 100 µM | > 100 µM | > 100 µM | > 100 µM | > 100 µM | > 100 µM | – | – | – | – | – | – | – | –
16 | CC(=O)OCCCOCn1c(Cc2ccccc2)c(C)c(=O)[nH]c1=O | > 100 µM | > 100 µM | > 100 µM | > 100 µM | > 100 µM | > 100 µM | > 100 µM | > 100 µM | > 100 µM | > 100 µM | – | – | – | – | – | – | – | –
17 | CC(O)c1cc2c(s1)C(=O)c1sccc1C2=O (stereo unspecified) | 0.593 µM | > 100 µM | 1.19 µM | 1.09 µM | 0.429 µM | 0.178 µM | – | 1.89 µM | 0.0486 µM | 0.0358 µM | – | – | – | – | – | – | – | –
18 | COC(=O)CCC(=O)NC1=C(Nc2ccc(OC)cc2)C(=O)c2ccccc2C1=O | 45.5 µM | > 85.2 µM | 40.2 µM | 28 µM | 33.6 µM | 21.4 µM | 54.5 µM | 18.8 µM | 4.69 µM | 16.1 µM | – | – | – | – | – | – | – | –
19 | CC[C@H](O)[C@H](C)C=C1SCCCS1 | > 100 µM | > 100 µM | > 100 µM | > 100 µM | > 100 µM | > 100 µM | > 100 µM | > 100 µM | > 100 µM | > 100 µM | – | – | – | – | – | – | – | –
20 | N[C@H](C(=O)O)[C@H]1ON=C(Cl)[C@@H]1O | > 550 µM | > 246 µM | 205 µM | > 550 µM | 137 µM | > 550 µM | – | > 550 µM | > 255 µM | > 550 µM | 2.23 µM | 5.15 µM | 4.06 µM | 3.27 µM | 3.95 µM | 0.374 µM | 40.2 µM | > 51.1 µM
21 | Cc1ccsc1/C=N/Nc1nc2ccccc2s1 | 74.6 µM | 28.8 µM | 36.1 µM | > 100 µM | 19.2 µM | > 100 µM | 30.8 µM | 36 µM | – | 51.4 µM | – | – | – | – | – | – | – | –
